Where no end group is shown, it is not given here. [ ]: non-standard residue; d: D form. Orn = NCCC[C@H](N)C(=O)O; Dab = NCC[C@H](N)C(=O)O; Dap = NC[C@H](N)C(=O)O
Columns and labels:
[1] = target: RRE hairpin RNA; assay: Fluorescence anisotropy competition with Rev-N-rhodamine probe, binding to RRE hairpin RNA; design: species or system HIV; conditions: 20° C., pH 7.4, read-out: Dissociation constant, RRE
Method: (§1) Binding force to each target hairpin RNA (IRES, RRE, TAR and 16S A-site) was measured by fluorescence polarization using alanine scanned peptide library (1b-1h).
(§2) Particularly, […] of each target RNA was prepared at the concentration of 10 mM, which stood at 65° C. for 10 minutes and then cooled down slowly at room temperature, leading to folding. The amphiphilic peptide was prepared respectively at the concentration of […], which were maintained at 0° C. As a probe, rev peptide labeled with rhodamine (Rev-N-rhodamine) emitting […] fluorescence was prepared at the concentration of 10 mM. Buffer was composed of 140 mM NaCl, 5 mM KCl, 1 mM MgCl2, and 20 mM HEPES (N-2-Hydroxyethylpiperazine-N′-2-Ethanesulfonic Acid, pH 7.4). Fluorescence Anisotropy was measured using AMINCO-Bowman Series Luminescence Spectrometer at 20° C. Ten nM of the probe was added in […] of buffer, to which target RNA was added to induce interaction between the probe and the target RNA. At that time, anisotropy value increased. Then, the synthesized peptide competing with the probe for binding site was added thereto with increasing the concentration slowly. Changes of fluorescence polarization were measured until fluorescence polarization reached as low as the beginning. Considering the concentration and amount of the peptide added, binding force to target RNA was calculated. That is, the binding strength between target RNA and peptide was determined according to the following KaleidaGraph. [Peptide]=Kd(Amax−A)/[Kd(A−A0)+1]×[RNA]−Kd(A−A0)^2[Probe]0/(Amax−A)(Amax−A0)
(§3) Herein, [Peptide] indicates the concentration of peptide, [RNA] indicates the concentration of target RNA, and [Probe]0 indicates the concentration of probe. A is the value of fluorescence anisotropy of sample, Amax is the value of totally bound tracer, and A0 is the value of totally free tracer.

[2] = test system: IRES domain IV hairpin; assay: Fluorescence anisotropy competition with Rev-N-rhodamine probe, binding to IRES hairpin; design: species or system HCV; conditions: for differentiation coefficient (IRES): (mean Kd to other hairpin RNA)/(Kd to one hairpin RNA); for binding strength to IRES, in words: compared with the original peptide; for Kd: fluorescence anisotropy, 20° C., pH 7.4, read-out: Dissociation constant, IRES
Method: as §1, §2, §3

[3] = target: 16S ribosomal RNA A-site; assay: Fluorescence anisotropy competition with Rev-N-rhodamine probe, binding to 16S A-site; conditions: 20° C., pH 7.4, read-out: Dissociation constant, 16S A-site
Method: as §1, §2, §3

[4] = target: TAR hairpin RNA; assay: Fluorescence anisotropy competition with Rev-N-rhodamine probe, binding to TAR hairpin RNA; design: species or system HIV; conditions: fluorescence anisotropy, 20° C., pH 7.4; read-out: Dissociation constant, TAR
Method: as §1, §2, §3

[5] = Circular dichroism (CD), percentage of alpha-helix; type: physicochemical; conditions: CD at 20° C., condition not given; for Alpha-helical rate (%), second value of pair: value after the slash; for Alpha-helical rate (%), first value of pair: value before the slash
Method: To investigate alpha-helix of the amphiphilic peptide (1a-1h), circular dichroism (CD) was performed. Particularly, CD was measured at 20° C. by using JASCO model J715 spectropolarimeter. Scanning was performed at 190-250 nm three times (bandwidth: 1 nm, datapitch: 0.5 nm, speed: 100 nm/min), which were averaged to obtain CD data. Spectrum was corrected by measuring background spectrum. CD signal was recorded after modulating thereof with mean residue ellipticity [Q]. Percentage (%) of alpha-helix(fn) was calculated by the following formula. [Q]=Qobs[MRW/(10lc)]
MRW=mean residue weight (dividing molecular weight by the number of peptide bond, l=pathway length (cm), c=concentration (mg/mL). fn=([Q]222−[Q]coil)/([Q]helix−[Q]coil) [Q]helix=−40,000[…]+100t [Q]coil=640−45t
[Q]222=mean residue ellipticity at 222 nm (deg cm2 mol-1), [Q]helix=ellipticity of peptide having complete helical structure, [Q]coil=ellipticity of peptide having complete random coil structure, n=number of amino acid, t=° C.

| Substance | Kd [1] [nM] | differentiation coefficient (IRES) [2] | binding strength to IRES, in words [2] | Kd [2] [nM] | Kd [3] [nM] | Kd [4] [nM] | Alpha-helical rate (%), second value of pair [5] [%] | Alpha-helical rate (%), first value of pair [5] [%] |
| --- | --- | --- | --- | --- | --- | --- | --- | --- |
| LKKLLKWLKKLLKLAG [2q, tryptophan scanned second generation peptide] | 1.2 | 15 | significantly increased | 0.87 | 17 | 21 | 71 | 19 |
| LKKLLKLLKKLLDabLAG (LKKLLKLLKKLL[Dab]LAG-NH2; N-terminus assumed; SMILES CC(C)C[C@H](NC(=O)[C@H](CCN)NC(=O)[C@H](CC(C)C)NC(=O)[C@H](CC(C)C)NC(=O)[C@H](CCCCN)NC(=O)[C@H](CCCCN)NC(=O)[C@H](CC(C)C)NC(=O)[C@H](CC(C)C)NC(=O)[C@H](CCCCN)NC(=O)[C@H](CC(C)C)NC(=O)[C@H](CC(C)C)NC(=O)[C@H](CCCCN)NC(=O)[C@H](CCCCN)NC(=O)[C@@H](N)CC(C)C)C(=O)N[C@@H](C)C(=O)NCC(N)=O) [2h, second generation peptide, hydrophilic face modified] | 14 | 2.0 | – | 8.7 | 25 | 12 | 34 | 24 |
| LKKLLKLLDabKLLKLAG (LKKLLKLL[Dab]KLLKLAG-NH2; N-terminus assumed; SMILES CC(C)C[C@H](NC(=O)[C@H](CCCCN)NC(=O)[C@H](CC(C)C)NC(=O)[C@H](CC(C)C)NC(=O)[C@H](CCCCN)NC(=O)[C@H](CCN)NC(=O)[C@H](CC(C)C)NC(=O)[C@H](CC(C)C)NC(=O)[C@H](CCCCN)NC(=O)[C@H](CC(C)C)NC(=O)[C@H](CC(C)C)NC(=O)[C@H](CCCCN)NC(=O)[C@H](CCCCN)NC(=O)[C@@H](N)CC(C)C)C(=O)N[C@@H](C)C(=O)NCC(N)=O) [2e, second generation peptide, hydrophilic face modified] | 23 | 6.5 | – | 3.5 | 17 | 28 | 57 | 43 |
| LKKLLKWLOrnKLLKLAG (LKKLLKWL[Orn]KLLKLAG-NH2; N-terminus assumed; SMILES CC(C)C[C@H](NC(=O)[C@H](CCCCN)NC(=O)[C@H](CC(C)C)NC(=O)[C@H](CC(C)C)NC(=O)[C@H](CCCCN)NC(=O)[C@H](CCCN)NC(=O)[C@H](CC(C)C)NC(=O)[C@H](Cc1c[nH]c2ccccc12)NC(=O)[C@H](CCCCN)NC(=O)[C@H](CC(C)C)NC(=O)[C@H](CC(C)C)NC(=O)[C@H](CCCCN)NC(=O)[C@H](CCCCN)NC(=O)[C@@H](N)CC(C)C)C(=O)N[C@@H](C)C(=O)NCC(N)=O) [3b, third generation peptide, both faces modified] | 18 | 4.2 | – | 5.1 | 24 | 22 | 52 | 34 |
| LKKLLKLLOrnKLLKLAG (LKKLLKLL[Orn]KLLKLAG-NH2; N-terminus assumed; SMILES CC(C)C[C@H](NC(=O)[C@H](CCCCN)NC(=O)[C@H](CC(C)C)NC(=O)[C@H](CC(C)C)NC(=O)[C@H](CCCCN)NC(=O)[C@H](CCCN)NC(=O)[C@H](CC(C)C)NC(=O)[C@H](CC(C)C)NC(=O)[C@H](CCCCN)NC(=O)[C@H](CC(C)C)NC(=O)[C@H](CC(C)C)NC(=O)[C@H](CCCCN)NC(=O)[C@H](CCCCN)NC(=O)[C@@H](N)CC(C)C)C(=O)N[C@@H](C)C(=O)NCC(N)=O) [2d, second generation peptide, hydrophilic face modified] | 7.6 | 8.7 | – | 1.3 | 18 | 9.8 | 57 | 28 |
| LKKLLKLLKALLKLKG [1f, alanine scanned first generation peptide] | 92 | 1.8 | – | 33 | 64 | 25 | 45 | 17 |
| LKKLWKLLKKLLKLAG [2p, tryptophan scanned second generation peptide] | 6.2 | 3.3 | – | 2.8 | 12 | 9.8 | 56 | 20 |
| LKKLLKLLKKLWKLAG [2t, tryptophan scanned second generation peptide] | 13 | 5.9 | – | 2.3 | 17 | 10 | 58 | 12 |
| LAKLLKLLKKLLKLKG [1b, alanine scanned first generation peptide] | 140 | 2.0 | – | 53 | 160 | 16 | 44 | 9 |
| LKKLLKLLKKLLDapWAG (LKKLLKLLKKLL[Dap]WAG-NH2; N-terminus assumed; SMILES CC(C)C[C@H](NC(=O)[C@H](CC(C)C)NC(=O)[C@H](CCCCN)NC(=O)[C@H](CCCCN)NC(=O)[C@H](CC(C)C)NC(=O)[C@H](CC(C)C)NC(=O)[C@H](CCCCN)NC(=O)[C@H](CC(C)C)NC(=O)[C@H](CC(C)C)NC(=O)[C@H](CCCCN)NC(=O)[C@H](CCCCN)NC(=O)[C@@H](N)CC(C)C)C(=O)N[C@@H](CN)C(=O)N[C@@H](Cc1c[nH]c2ccccc12)C(=O)N[C@@H](C)C(=O)NCC(N)=O) [3g, third generation peptide, both faces modified] | 11 | 9.4 | – | 1.2 | 17 | 5.9 | 63 | 41 |
| LKKWLKLLKKLLKLAG [2o, tryptophan scanned second generation peptide] | 5.9 | 5.6 | – | 3.3 | 15 | 34 | 52 | 4.6 |
| LKKLLDabWLKKLLKLAG (LKKLL[Dab]WLKKLLKLAG-NH2; N-terminus assumed; SMILES CC(C)C[C@H](NC(=O)[C@H](CCCCN)NC(=O)[C@H](CC(C)C)NC(=O)[C@H](CC(C)C)NC(=O)[C@H](CCCCN)NC(=O)[C@H](CCCCN)NC(=O)[C@H](CC(C)C)NC(=O)[C@H](Cc1c[nH]c2ccccc12)NC(=O)[C@H](CCN)NC(=O)[C@H](CC(C)C)NC(=O)[C@H](CC(C)C)NC(=O)[C@H](CCCCN)NC(=O)[C@H](CCCCN)NC(=O)[C@@H](N)CC(C)C)C(=O)N[C@@H](C)C(=O)NCC(N)=O) [3a, third generation peptide, both faces modified] | 22 | 10 | – | 1.8 | 13 | 19 | 55 | 29 |
| LKKLLKLLKKLLALKG [1g, alanine scanned first generation peptide] | 90 | 0.47 | reduced binding strength | 210 | 200 | 39 | 44 | 8 |

Reference: US8084399B2, “Process for screening of a binding amphiphilic peptides specific for hairpin RNA” (priority 2009, dated 2011)
